Experimental data as given in patent US20250222011A1, “DRUG TARGET FOR INHIBITING TUMOR, USE, AND ORAL DRUG” (CHI BIOTECH CO., LTD., priority 2024, published 2025).

Legend:
Vinculin = target: T1, Vinculin (Homo sapiens, UniProt P18206); test: CESTA-WB (cellular thermal shift assay-Western blotting), H1299 cell lysate; assay type: binding; details: ATCA 10 nM to 10 mM, 55° C. for 3 min, FIG. 1
T1 construct: endogenous in cells; host or cells: H1299
T1 sequence (P18206 1-1066 isoform P18206-2): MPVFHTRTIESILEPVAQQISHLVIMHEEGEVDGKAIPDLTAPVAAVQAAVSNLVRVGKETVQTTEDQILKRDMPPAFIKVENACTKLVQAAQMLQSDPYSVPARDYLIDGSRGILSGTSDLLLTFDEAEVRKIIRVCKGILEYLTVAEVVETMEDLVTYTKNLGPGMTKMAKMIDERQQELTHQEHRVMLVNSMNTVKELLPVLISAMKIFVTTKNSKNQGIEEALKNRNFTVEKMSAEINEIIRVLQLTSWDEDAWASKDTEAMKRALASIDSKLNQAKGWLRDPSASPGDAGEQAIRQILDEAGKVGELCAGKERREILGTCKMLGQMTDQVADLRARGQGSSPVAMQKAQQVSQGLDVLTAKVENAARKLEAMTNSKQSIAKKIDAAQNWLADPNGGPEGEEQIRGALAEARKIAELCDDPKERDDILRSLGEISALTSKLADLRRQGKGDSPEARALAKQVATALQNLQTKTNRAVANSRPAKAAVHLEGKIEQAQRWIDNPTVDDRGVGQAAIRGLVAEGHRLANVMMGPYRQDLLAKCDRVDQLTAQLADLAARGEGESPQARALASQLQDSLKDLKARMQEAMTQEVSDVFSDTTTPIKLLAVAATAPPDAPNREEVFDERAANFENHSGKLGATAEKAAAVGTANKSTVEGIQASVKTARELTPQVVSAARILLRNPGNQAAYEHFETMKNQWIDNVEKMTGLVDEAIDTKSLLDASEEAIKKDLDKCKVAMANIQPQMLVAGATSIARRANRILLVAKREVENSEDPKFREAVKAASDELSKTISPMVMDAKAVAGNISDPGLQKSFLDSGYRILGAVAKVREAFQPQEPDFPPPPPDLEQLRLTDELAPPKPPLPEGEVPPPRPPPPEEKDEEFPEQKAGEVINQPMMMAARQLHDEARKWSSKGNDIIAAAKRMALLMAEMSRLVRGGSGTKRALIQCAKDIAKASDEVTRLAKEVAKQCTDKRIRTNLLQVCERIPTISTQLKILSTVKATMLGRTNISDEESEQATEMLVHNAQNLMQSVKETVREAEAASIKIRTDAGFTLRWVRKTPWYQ
Procedure: (§1) CESTA-WB experiment: H1299 cells were plated and cultured in a 15 cm dish, and when a cell density reached about 90% to 100%, the medium was aspirated; the cells were washed twice with PBS, and 2 mL of Lysis Buffer (RB Buffer, 10% N-Dodecyl-β-D-maltoside, and 1× protease inhibitor) was added to each dish and placed flatly on ice to allow lysis for 30 min, and a cell lysate was collected and centrifuged at 17,000 g, 4° C. for 10 min; a resulting supernatant was quantified using a BCA kit. 45 μL of a whole protein was added in a PCR tube, ATCA was added to final concentrations of 10 mM, 1 mM, 100 μM, 10 μM, 1 μM, 100 nM, and 10 nM, respectively, and allowed to stand at 25° C. for 30 min to allow the ATCA to fully interact with the whole protein; while another two tubes without ATCA were taken as controls. The experimental group was treated at 55° C. for 3 min, while one tube in the control group was treated at 37° C. for 3 min, and the other tube was treated at 50° C. for 3 min; centrifugation was conducted at 17,000×g for 10 min at 4° C. to remove denatured proteins. The supernatant was transferred into a new PCR tube, and 5 μg of the supernatant was added into 5×SDS Loading Buffer to allow denaturation in a 100° C. water bath; the Western Blotting was conducted to quantify EEF2, EIF2S1, B-actin, and Vinculin proteins.
(§2) Western Blotting experiment: the sample and molecular weight standard of pre-stained protein were loaded onto an SDS-PAGE gel (10 cmx 10 cm) to allow electrophoresis at 100 V for 40 min. The proteins in SDS-PAGE were transferred to nitrocellulose membrane at 100 V, 230 mA within 1 h. After transfer, the nitrocellulose membrane was washed with 25 mL of TBS for 5 min at room temperature. The nitrocellulose membrane was placed in 25 mL of blocking buffer (TBST, 5% skim milk) and incubated at room temperature for 1 h. The membrane was washed three times with 15 mL TBST, 5 min each. […]

EIF2S1 = target: T2, EIF2S1 (Homo sapiens, UniProt P05198); test: as above; assay type: binding; details: ATCA 10 nM to 10 mM, 55° C. for 3 min, FIG. 1
T2 construct: endogenous in cells; host or cells: H1299
T2 sequence (P05198 whole entry): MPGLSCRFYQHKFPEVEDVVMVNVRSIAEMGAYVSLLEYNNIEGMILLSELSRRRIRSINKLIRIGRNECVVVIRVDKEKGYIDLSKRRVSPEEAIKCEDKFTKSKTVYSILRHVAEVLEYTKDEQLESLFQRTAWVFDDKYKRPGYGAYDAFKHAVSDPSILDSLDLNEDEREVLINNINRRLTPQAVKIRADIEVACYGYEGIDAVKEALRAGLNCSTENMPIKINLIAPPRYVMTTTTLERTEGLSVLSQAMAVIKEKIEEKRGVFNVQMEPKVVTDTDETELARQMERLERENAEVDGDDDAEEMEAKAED
Procedure: as §1, §2

EEF2 = target: T3, EEF2 (Homo sapiens, UniProt P13639); test: as above; assay type: binding; details: ATCA 10 nM to 10 mM, 55° C. for 3 min, FIG. 1
T3 construct: a cell lysate was collected and centrifuged at 17,000 g; endogenous in cells; host or cells: H1299
Procedure: as §1, §2

[1] = tested on: lung adenocarcinoma cells H1299; test: Apoptosis by Annexin V and propidium iodide staining, flow cytometry; assay type: cell-based; details: 0.5 mg/mL ATCA, P<0.05, n=4
Excerpt: (§3) In the experiment of ATCA inducing apoptosis in lung cancer cells, Annexin V and propidium iodide were used to stain the cancer cells and then detected by flow cytometry.

[2] = tested on: lung adenocarcinoma cells A549; test: as above; assay type: cell-based; details: 0.5 mg/mL ATCA, P<0.05, n=4
Excerpt: as §3

liver cancer cells = test: Proliferation of liver cancer cells (other experiments); assay type: cell-based
cancer cells = test: LDH assay of cytotoxicity; assay type: cell-based; details: 0.5 mg/mL
Excerpt: (§4) In addition, an LDH assay was adopted to determine the cytotoxicity of ATCA and detect the cytotoxicity of the drug.

normal cells (HBE) = test: LDH assay of cytotoxicity; assay type: cell-based; details: 0.5 mg/mL
Excerpt: as §4

## O=C(O)C1=CC(=C(c2ccc(O)c(C(=O)O)c2)c2ccc(O)c(C(=O)O)c2)C=CC1=O [ATCA, aurintricarboxylic acid]
Vinculin
  binding to non-target protein Vinculin: did not bind
EIF2S1
  binding to target protein EIF2S1: binds
EEF2
  binding to non-target protein EEF2: did not bind
[1]
  apoptosis of H1299 cells: significant apoptosis
[2]
  apoptosis of A549 cells: significant apoptosis
Liver cancer cells
  proliferation of liver cancer cells: inhibit the proliferation
Cancer cells
  cytotoxicity to cancer cells (LDH): did not cause obvious cytotoxicity
Normal cells (HBE)
  cytotoxicity to normal cells (LDH): did not cause obvious cytotoxicity
